The test system of series [1] is Human breast cancer MDA-MB-436 cells. Nature of the series: Mouse MDA-MB-436 subcutaneous in vivo transplanted tumor model. The following applies: for TGI: after 28 days of administration. Here is the method:
Human breast cancer MDA-MB-436 cells were placed in Leibovitz's L-15 medium (supplemented with 10 μg/mL insulin, 16 μg/mL glutathione, 10% fetal bovine serum and 1% penicillin-streptomycin solution) and cultured at 37° C. Conventional digestion treatment with trypsin was performed twice a week for passage. When the cell saturation was 80%-90%, and the number reached the requirement, the cells were harvested, counted, and inoculated. BALB/c nude mice (from Beijing Vital River Laboratory Animal Technology Co., Ltd.) were subcutaneously inoculated with 0.2 mL (10×10^6) of MDA-MB-436 cells (plus matrigel, with the volume ratio of 1:1) on the right back. When the average tumor volume reached about 180 mm^3, grouping and administration were performed (marked as Day 0). The solvent group was given 5% DMSO, 30% PEG400 and 65% of 20% sulfobutyl-β-cyclodextrin solution, and the administration group was given 1 or 10 mg/kg compound 10. The administration frequency was once a day, the administration cycle was 29 days, and the drug withdrawal observation period was set to 14 days. After grouping, the tumor diameter was measured twice a week with a vernier caliper. The formula for calculating the tumor volume was: V=0.5×a×b^2, where a and b represented the long and short diameters of the tumor, respectively. […] The tumor growth curve and the animal body weight change curve were as shown in FIG. 1 and FIG. 2, respectively.

Series [2] can be described thus: Pharmacokinetic test in mice. Type of series: in vivo, ICR mice. The protocol:
8.1 Experimental animals: male ICR mice, 20 to 25 g, 18 mice/compound, purchased from Chengdu Ddossy Experimental Animals Co., Ltd.
8.2 Experimental design: on the day of the experiment, 36 ICR mice were randomly grouped according to their body weights. The animals were fasted with water available for 12 to 14 h one day before the administration, and were fed 4 h after the administration.
Before and after the administration, 0.06 mL of blood was taken from the orbit of the animals under isoflurane anesthesia and placed in an EDTAK2 centrifuge tube. The blood was centrifuged at 5000 rpm and 4° C. for 10 min to collect plasma. The blood collection time points for the intravenous group and intragastric administration group were: 0 min, 5 min, 15 min, 30 min, 1 h, 2 h, 4 h, 6 h, 8 h, and 24 h. Before analysis and detection, all samples were stored at −80° C. The samples were analyzed quantitatively by LC-MS/MS.

Series [3] can be described thus: Pharmacokinetic test in rats. Type of series: in vivo, SD rats. The protocol: 7.1 Experimental animals: male SD rats, about 220 g, 6-8 weeks old, 6 rats/compound, purchased from Chengdu Ddossy Experimental Animals Co., Ltd.
7.2 Experimental design: on the day of the experiment, 12 SD rats were randomly grouped according to their body weights. The animals were fasted with water available for 12 to 14 h one day before the administration, and were fed 4 h after the administration.
Before and after the administration, 0.15 mL of blood was taken from the orbit of the animals under isoflurane anesthesia and placed in an EDTAK2 centrifuge tube. The blood was centrifuged at 5000 rpm and 4° C. for 10 min to collect plasma. The blood collection time points for the intravenous administration group and intragastric administration group were: 0, 5 min, 15 min, 30 min, 1 h, 2 h, 4 h, 6 h, 8 h, and 24 h. Before analysis and detection, all samples were stored at −80° C. The samples were analyzed quantitatively by LC-MS/MS.

In another series the target is PARP7 (Homo sapiens (Human), UniProt Q7Z3E1). Nature of the series: PARP7 enzyme activity inhibition (chemiluminescence kit). Type of series: biochemical. The protocol:
PARP1, PARP2 and PARP7 chemical […] detection kits were all purchased from BPS Bioscience. The histone solution in the kit was diluted 5× with 1×PBS, and 25 μL of the diluted histone solution was added to a microwell plate and incubated overnight at 4° C. After the incubation was completed, the plate was washed three times with PBST (0.05% Tween-20). 25 μL of a blocking solution was added to the microwell plate and incubated at 25° C. for 90 minutes. After the incubation was completed, the plate was washed three times with PBST. 2.5 μL of compounds at different concentrations diluted in test buffer and 5 μL of 2.5× substrate mixed solution were added to the microwell plate. PARP1, PARP2 and PARP7 enzymes were diluted to 0.33, 0.23 and 5.00 ng/μL, respectively, 5 μL of the diluent was added to the microwell plate, and the reaction system was incubated at 25° C. for 60 minutes. After the incubation was completed, the plate was washed three times with PBST. […] ELISA ECL substrate A and substrate B were mixed at a ratio of 1:1 (v/v), 25 μL of the mixture was added to the microwell plate, and the chemiluminescence value was read using a BMG microplate reader.
Curve fitting was performed by four parameters (log(inhibitor) vs. response−Variable slope) using GraphPad Prism software, and the IC50 value was calculated.

Where [4] appears, read: male, ICR, mouse, iv, i.v. 2.5 mg/kg, plasma.
The mark [5] stands for this setting: male, SD, rat, iv, i.v. 2.5 mg/kg, plasma.

Sequence of PARP7 (Q7Z3E1 whole entry): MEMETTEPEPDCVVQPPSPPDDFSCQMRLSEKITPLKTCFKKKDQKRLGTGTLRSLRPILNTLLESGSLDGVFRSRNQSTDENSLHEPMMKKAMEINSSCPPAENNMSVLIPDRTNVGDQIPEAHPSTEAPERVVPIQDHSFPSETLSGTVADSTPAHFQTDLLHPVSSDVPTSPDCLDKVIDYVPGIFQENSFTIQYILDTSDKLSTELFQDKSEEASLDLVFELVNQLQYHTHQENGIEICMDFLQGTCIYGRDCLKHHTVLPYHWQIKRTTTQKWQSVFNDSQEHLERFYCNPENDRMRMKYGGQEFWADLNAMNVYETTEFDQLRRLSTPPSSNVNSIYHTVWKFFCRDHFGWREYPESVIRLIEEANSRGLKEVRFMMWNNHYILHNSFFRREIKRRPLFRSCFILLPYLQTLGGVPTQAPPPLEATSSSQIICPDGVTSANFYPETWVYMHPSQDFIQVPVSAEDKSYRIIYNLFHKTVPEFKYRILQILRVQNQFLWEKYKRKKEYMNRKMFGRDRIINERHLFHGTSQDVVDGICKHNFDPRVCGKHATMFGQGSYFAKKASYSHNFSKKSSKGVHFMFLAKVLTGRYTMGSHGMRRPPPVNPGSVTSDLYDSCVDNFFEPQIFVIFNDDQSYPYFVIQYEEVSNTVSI

As to `CCc1cc2ncc(CN3CCN(c4ccc(C(=O)NC5CCN(c6ccc7c(c6)C(=O)N(C6CCC(=O)NC6=O)C7=O)CC5)nc4)CC3)cc2[nH]c1=O` (centres unmarked) [Compound 10, N-(1-(2-(2,6-dioxopiperidin-3-yl)-1,3-dioxoisoindolin-5-yl)piperidin-4-yl)-5-(4-((7-ethyl-6-oxo-5,6-dihydro-1,5-naphthyridin-3-yl)methyl)piperazin-1-yl)picolinamide], the “tumor growth after drug withdrawal” value in series [1] (1 mg/kg group, 14 days withdrawal observation) is “continued to grow”. The TGI in series [1] (1 mg/kg once a day) came to 47.14%; in series [1] (10 mg/kg once a day), 111%. Further, the “tumor volume after drug withdrawal” value in series [1] (10 mg/kg group, 14 days withdrawal observation) is “consistently smaller than the tumor volume at the time of grouping”. For the same compound, in series [1] (1 or 10 mg/kg once a day), the “body weight of the animals” value is recorded as “no significant decrease in the body weight”. Besides, in series [1] (mouse MDA-MB-436 model), the “efficacy in inhibiting tumor growth” value was “good efficacy in inhibiting tumor growth and inducing tumor regression”. In addition, in series [1] (mouse MDA-MB-436 model), the tolerability result was “well tolerated”. Also, the pharmacokinetic characteristics entry in series [2] and in series [3] was “good pharmacokinetic characteristics” each time. Further, the F came to 84.6% in series [2] (i.g. 10 mg/kg) and 34.3% in series [3] (i.g. 10 mg/kg). Moreover, the AUC(0-t) – broadly, exposure summed from dosing to a finite time, without extrapolation to infinity – in series [2] (setting [4]) was found to be 20600 ng·h/mL; in series [2] (male, ICR, mouse, po, i.g. 10 mg/kg, plasma) it was 69800 ng·h/mL; in series [3] (setting [5]), 31200 ng·h/mL; in series [3] (male, SD, rat, po, i.g. 10 mg/kg, plasma) it was 42900 ng·h/mL. For the same compound, the figures for the clearance in series [2] (setting [4]) and in series [3] (setting [5]) were 2.02 mL/min/kg and 1.42 mL/min/kg, respectively. For the same compound, the Vd in series [2] (male, ICR, mouse, iv, i.v. 2.5 mg/kg, plasma, read-out: Vdss) was determined as 0.358 L/kg; in series [3] (male, SD, rat, iv, i.v. 2.5 mg/kg, plasma, read-out: Vdss), 0.405 L/kg. Also, on PARP7, the IC50 (usually the concentration that gives 50% inhibition) is 91 nM.

Values taken from patent US20250222116A1, “PARP-1 DEGRADATION AGENT AND USE THEREOF” (XIZANG HAISCO PHARMACEUTICAL CO., LTD., priority 2021, published 2025).
